Laboratory results as given in US20190276475A1, “CRYSTAL AND SALT OF NITROIMIDAZOLE, AND MANUFACTURING METHOD THEREOF” (priority 2016, published 2019).

Key:
[1] = system: Mycobacterium tuberculosis Erdman, ATCC 35801; experiment: In vivo efficacy in mouse model of chronic infection; details: mice, whole lung, day 32 to 59 after infection, counted day 60
[2] = Solid stability test under high temperature and high humidity conditions
From the text: The samples placed under different conditions were sampled and tested on the 5th day and 10th day, and the test results were compared with the initial test results of 0 days.

[3] = Stability test in different solvents for the crystal form A; details: stirred at 40° C. for 2 days
Method: The mixture was stirred at 40° C. for 2 days, and then centrifuged. The solid in all samples was collected, dried in a vacuum oven (40° C.) overnight, and was tested for crystal form by XRPD.

[4] = physchem; details: 22 °C, pH 2, aqueous buffer, kinetic from dmso stock
Method: The test compound and the control compound (10 mM DMSO mother liquor, 10 μL per well) were added to a 96-well plate containing 490 μL buffer per well. After 2 minutes of vortexing, the sample plate were incubated for 24 hours at room temperature (22±2° C.) on a shaker. 200 μL sample was then transferred to a Multi Screen filter plate (polycarbonate membrane), filtered through a millipore vacuum manifold and the filtrate was collected. The concentration of the compound in the filtrate was determined by HPLC-UV. Three UV standard solution of different concentrations and the solubility test sample were injected successively. Each sample was inserted twice, and the concentration was calculated by standard curve line and averaged.

[5] = system: MDR1-MDCK cells; experiment: Bidirectional permeability in MDR1-MDCK cells; type: in vitro ADME; details: conclusion
Method: MDR1-MDCK cells permanently expressing human P-glycoprotein were inoculated in a 96-well Insert cell plate and cultured for 4-7 days to form convergent monolayer cells.
After the incubation, the sample solutions in the donor wells and receiver wells were immediately mixed with cold acetonitrile solution containing an internal standard. The amount of the intracellular accumulated compound was measured by lysing the cells with the cold acetonitrile solution containing an internal standard. The concentration of the test compound in all samples (including the starting dosing solution, the supernatant in the donor wells, the receiving solution, and the cell lysate) was analyzed by LC/MS/MS method. The concentration of the test compound was expressed by the ratio of the peak area of the compound to the peak area of the internal standard.
The standard conditions for the transport experiment of the compound represented by formula (I) were as follows:
Test concentration: 2 (DMSO≤1%);
Direction: bidirectional transport, including A→B and B→A these two directions;
Inoculated time: single time, 2.5 hours;
Buffer for transport: HBSS, pH 7.4;
Inoculated condition: 37° C., 5% CO2, 95% relative humidity.

[6] = system: Vero Cell; experiment: Vero cell cytotoxicity
[7] = system: M. tuberculosis H37Rv; experiment: In vitro MIC against M. tuberculosis H37Rv, MABA; type: cell-based
[8] = system: M. bovis ATCC35737; type: cell-based
[9] = system: M. tuberculosis H37R; experiment: In vitro MIC against M. tuberculosis H37Rv, LORA; type: cell-based; details: Mycobacterium tuberculosis, read-out: M. tuberculosis H37R LORA (MIC) (μg/mL)
[10] = physchem; details: thermodynamic from solid, Solubility (mg/mL)
Method: The solubility test was carried out by using a manual stepwise dilution method under normal temperature conditions while observing the dissolution. About 2 mg of the crystal form C of the compound represented by formula (I) was added into different vials used in the liquid phase, and then an organic solvent or solvent mixture was added in small portions to observe the dissolution of the compound.

[11] = high temperature (60° C., open), 5th day
[12] = high temperature (60° C., open), 10th day

CO[C@H]1/C=C/O[C@@]2(C)Oc3c(C)c(O)c4c(O)c(c(/C=N/N5CCN(C)CC5)c(O)c4c3C2=O)NC(=O)/C(C)=C\C=C\[C@H](C)[C@H](O)[C@@H](C)[C@@H](O)[C@@H](C)[C@H](OC(C)=O)[C@@H]1C [Rifampin, reference compound]
Log value reduced ([1]; 15 mg/kg oral): 2.2 | Number of colony ([1]; 15 mg/kg oral): 1.2E+04

C[C@]1(CN2Cc3nc(-c4ccc(F)cc4)sc3C2)Cn2cc([N+](=O)[O-])nc2O1.O=S(=O)(O)c1ccccc1
Appearance ([2]; 0 day): grey powder | Total impurity (%) ([2]; 0 day): 1.32% | XRPD ([2]; 0 day): crystal | Appearance ([2]; […], open), 5th day): grey powder | Total impurity (%) ([2]; […], open), 5th day): 1.32% | XRPD ([2]; […], open), 5th day): crystal | Total impurity (%) ([2]; […], open), 10th day): 1.60% | XRPD ([2]; […], open), 10th day): crystal | Appearance [2, 11]: grey powder | Total impurity (%) [2, 11]: 1.49% | XRPD [2, 11]: crystal | Total impurity (%) [2, 12]: 1.86% | XRPD [2, 12]: crystal | Appearance (2 days) ([3]; acetonitrile-water (1:1)): suspension | Result (crystal form by XRPD) ([3]; acetonitrile-water (1:1)): crystal form A | Appearance (2 days) ([3]; acetonitrile): suspension | Result (crystal form by XRPD) ([3]; acetonitrile): crystal form A | Appearance (2 days) ([3]; ethanol-water (1:1)): suspension | Result (crystal form by XRPD) ([3]; ethanol-water (1:1)): crystal form A | Appearance (2 days) ([3]; ethanol): suspension | Result (crystal form by XRPD) ([3]; ethanol): crystal form A | Appearance (2 days) ([3]; ethyl acetate): suspension | Result (crystal form by XRPD) ([3]; ethyl acetate): crystal form A | Appearance (2 days) ([3]; isopropanol-water (1:1)): suspension | Result (crystal form by XRPD) ([3]; isopropanol-water (1:1)): crystal form A | Appearance (2 days) ([3]; isopropanol): suspension | Result (crystal form by XRPD) ([3]; isopropanol): crystal form A | solubility kinetic at 24 h [4]: 32.2 µM

C[C@]1(CN2Cc3nc(-c4ccc(F)cc4)sc3C2)Cn2cc([N+](=O)[O-])nc2O1 [the compound represented by formula (I)]
permeability compared to the reference compound OPC-67683 (in words) [5]: better permeability | IC50 ([6]; Chlorocebus sabaeus, Vero, read-out: Vero Cell (IC50) (μg/mL)): > 32 µg/mL | cytotoxicity (in words) ([6]; conclusion): without cytotoxicity | MIC ([7]; Mycobacterium tuberculosis, H37RV): < 1 µg/mL | inhibitory activity against M. tuberculosis H37Rv strain (in words) ([7]; conclusion): good inhibitory activity | M. bovis ATCC35737 ([8]; MIC, BCG strain, Alamar Blue): <1 µg/mL | inhibitory activity against M. bovis BCG strain (in words) ([8]; conclusion): good inhibitory activity | MIC [9]: 1 to 32 µg/mL

NC(=O)c1cnccn1 [pyrazinamide, reference compound]
Log value reduced ([1]; 150 mg/kg oral): 1.2 | Number of colony ([1]; 150 mg/kg oral): 1.2E+05

C[C@]1(CN2Cc3nc(-c4ccc(F)cc4)sc3C2)Cn2cc([N+](=O)[O-])nc2O1.O=S(=O)(O)c1ccccc1 [the compound represented by formula (II)]
Log value reduced ([1]; 10 mg/kg oral): 0.9 | Number of colony ([1]; 10 mg/kg oral): 2.7E+05 | Log value reduced ([1]; 30 mg/kg oral): 1.3 | Number of colony ([1]; 30 mg/kg oral): 1.0E+05 | Log value reduced ([1]; 100 mg/kg oral): 1.7 | Number of colony ([1]; 100 mg/kg oral): 4.1E+04

C[C@]1(CN2Cc3nc(-c4ccc(F)cc4)sc3C2)Cn2cc([N+](=O)[O-])nc2O1
solubility ([10]; aqueous with cosolvent or surfactant or cyclodextrin): < 2000 µg/mL | solubility ([10]; water): < 2000 µg/mL

C[C@]1(COc2ccc(N3CCC(Oc4ccc(OC(F)(F)F)cc4)CC3)cc2)Cn2cc([N+](=O)[O-])nc2O1 [OPC-67683, Delamanid, reference compound]
Log value reduced ([1]; 100 mg/kg oral): 0.9 | Number of colony ([1]; 100 mg/kg oral): 2.3E+05
